Patent US8110601B2, “Compound, α1 adrenergic receptor antagonistic agent, and composition” (Suntory Holdings Limited, priority 2007, dated 2012)

What was measured:
α1A receptor = target: T1, α1A receptor (Rattus norvegicus, UniProt P43140); test: α1 adrenergic receptor binding test ([3H]prazosin displacement, rat salivary gland membrane homogenate); conditions: [3H]prazosin 0.06 nM as ligand; membrane homogenate of rat salivary gland; 22° C., 60 minutes; specimens 0.02-20 μM
T1 construct: the α1A receptors are present on a membrane of a rat salivary gland; from tissue; host or cells: rat salivary gland membrane homogenate
T1 sequence (P43140 1-466): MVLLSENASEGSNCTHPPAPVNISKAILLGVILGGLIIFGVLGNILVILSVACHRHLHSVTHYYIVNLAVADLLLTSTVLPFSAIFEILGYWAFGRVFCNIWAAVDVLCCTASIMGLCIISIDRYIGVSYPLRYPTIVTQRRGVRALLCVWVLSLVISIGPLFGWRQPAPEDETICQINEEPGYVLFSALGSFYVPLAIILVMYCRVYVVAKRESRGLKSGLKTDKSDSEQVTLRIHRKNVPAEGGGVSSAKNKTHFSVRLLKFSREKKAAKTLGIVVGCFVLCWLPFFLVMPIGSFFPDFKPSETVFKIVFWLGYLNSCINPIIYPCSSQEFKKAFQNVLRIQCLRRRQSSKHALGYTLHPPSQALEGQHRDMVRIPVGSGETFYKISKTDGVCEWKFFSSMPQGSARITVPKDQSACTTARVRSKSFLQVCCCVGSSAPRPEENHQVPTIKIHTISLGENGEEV
Description: The compound 19a synthesized in Examples above was weighed, to which 100% dimethylsulfoxide (DMSO) was added so as to prepare a solution at 10-fold of the final concentration. The solution was diluted with an assay buffer, to thereby prepare four types of specimens with different concentrations (0.02 μM, 0.2 μM, 2 μM, 20 μM). In addition, with respect to each of the compound 19b, the racemic mixture of the compounds 19a and 19b, and the racemic mixture of the compounds 20a and 20b, likewise, four types of specimens were prepared (see Mitchel, A. D. et al., (1989) Brt. J. Pharmacol., 98: 883-889).
Next, as the α1 adrenergic receptor, an α1A receptor (one of subtypes of the α1 adrenergic receptor) was used, and a binding ability to the α1A receptor was examined.
It has been known that the α1A receptors are present on a membrane of a rat salivary gland. To an assay buffer (250 μL) containing a membrane homogenate of a rat salivary gland (150 μg in terms of protein amount) were added the above-mentioned specimen and [^3H]prazosin (0.06 nM) as ligand, to thereby prepare a reaction liquid, which was then incubated at 22° C. for 60 minutes. After the incubation, the reaction liquid was subjected to suction filtration using a glass fiber filter (GF/B, manufactured by Packard) which had been washed with 0.3% PEI (polyethyleneimine), to terminate reaction. The glass fiber filter was washed with 50 mM Tris-HCl cooled with ice, washing being repeated several times. The glass fiber filter was dried, a scintillation cocktail (Microscint 0, manufactured by Packard) was added thereto, and residual radioactivity on the filter was measured using a liquid scintillation counter (Topcount, manufactured by Packard). An amount of specific binding of [^3H]prazosin was obtained by subtracting an amount of non-specific binding in the presence of phentolamine (10 μM) from a total binding amount of [^3H]prazosin.

α1 adrenergic receptor = test: Rat tail artery constriction inhibition test; conditions: phenylephrine 10 μM, compound 1 μM, 100 μM in organ bath, other receptors blocked with antagonists
Description: Since the α1 adrenergic receptor antagonist has been known to have a vasoconstriction inhibition effect, the constriction inhibition effect of the compounds was examined using rat tail artery.
The compound 19a synthesized in Examples above was weighed, to which 100% dimethylsulfoxide (DMSO) was added so as to prepare a sample solution (stock solution) (concentration of the compound 19a: 100 mM). In addition, the compound 19b, the racemic mixture of the compounds 19a and 19b, and the racemic mixture of the compounds 20a and 20b were prepared likewise.
A tissue (rat tail artery) with an exposed endothelium was suspended in an organ bath filled with 20 mL of saline (NaCl: 118.0 mM, KCl: 4.7 mM, MgSO4: 1.2 mM, CaCl2: 2.5 mM, NaHCO3: 25 mM, glucose: 11.0 mM) (pH7.4) at 37° C., into which 95% oxygen/5% carbon dioxide had been fed. In the rat tail artery tissue, the α2 adrenergic receptor, β adrenergic receptor, histamine H1 receptor, muscarine receptor, and 5-HT2 receptor had been expressed like the α1 adrenergic receptor had, and in order to block the actions of these receptors, antagonistic agents (antagonists) for the respective receptor, i.e., yohimbine (1 μM), propranol (1 μM), pyrilamine (1 μM), atropine (1 μM), and methysergide (1 μM), were added.
In order to measure the contraction of the tissue caused by an action of the α1 adrenergic receptor, the tissue was connected to a force transducer which outputs a tension of the tissue as data. The tension in a static state was adjusted to become 1 g, and was maintained for 60 minutes (during that time period, the tissue was repeatedly washed with saline to readjust the tension). To the tissue was added 10 μM of a reference agonist (phenylephrine 1.0E-05M), and it was confirmed that the tissue responded in a normal manner. At the same time, there was recorded the tension (g) obtained by the contraction of the tissue caused by the action of the reference agonist. After confirming that the tissue responded in a normal manner, the reference agonist was washed out once, and the tissue was allowed to stand still for up to 15 minutes until the response returns to a static state (tension: 1 g).
After the response returned to the static state (tension: 1 g), the reference agonist was added so that the contraction rate of the tissue becomes 100%.
Next, the sample solution or a diluted solution thereof was added in such a manner that each of the concentrations of the compound 19a, the compound 19b, the racemic mixture of the compounds 19a and 19b, and the racemic mixture of the compounds 20a and 20b in the organ bath was increased in three stages (1 μM, 10 μM, 100 μM). Every time the concentration was increased, the tension was measured, and the contraction rate was calculated using the following equation. […]

COC(=O)[C@@H]1c2cc(/C=C/C(=O)NCCCCNC(=N)N)ccc2O[C@H]1c1ccc(O)cc1 [compound 19a]
IC50 (α1A receptor): 2030 nM
effect on contraction of rat tail artery caused by reference agonist (phenylephrine) (α1 adrenergic receptor): suppressed a response in the reference agonist (phenylephrine) in a dosage-dependent manner

COC(=O)[C@H]1c2cc(/C=C/C(=O)NCCCCNC(=N)N)ccc2O[C@@H]1c1ccc(O)cc1 [compound 19b]
IC50 (α1A receptor): 610 nM
effect on contraction of rat tail artery caused by reference agonist (phenylephrine) (α1 adrenergic receptor): suppressed a response in the reference agonist (phenylephrine) in a dosage-dependent manner

COC(=O)C1c2cc(C=CC(=O)NCCCCNC(=N)N)ccc2OC1c1ccc(O)cc1 (racemic) [racemic mixture of the compounds 19a and 19b, methyl-5-(1E)-[[4-(aminoiminomethyl)amino]butylamino]-3-oxo-1-propenyl]-2,3-dihydro-2-(4-hydroxyphenyl)-3-benzofurancarboxylate]
IC50 (α1A receptor): 2390 nM
effect on contraction of rat tail artery caused by reference agonist (phenylephrine) (α1 adrenergic receptor): suppressed a response in the reference agonist (phenylephrine) in a dosage-dependent manner

N=C(N)NCCCCNC(=O)/C=C/c1ccc2c(c1)C(C(=O)O)C(c1ccc(O)cc1)O2 (racemic) [racemic mixture of the compounds 20a and 20b]
IC50 (α1A receptor): 1990 nM
effect on contraction of rat tail artery caused by reference agonist (phenylephrine) (α1 adrenergic receptor): suppressed a response in the reference agonist (phenylephrine) in a dosage-dependent manner
